CC50 and EC50 data for 2 compounds are collected here from patent US20250034182A1, “PHOSPHOLIPID COMPOUNDS AND METHODS OF MAKING AND USING THE SAME” (priority 2021, published 2025).

What all share (assay type): cell-based
A short description of data set [1]: RSV NHBE CC50 384 V2 (per Ex. U). The note with it: human.
Data set [2] deals with Recombinant Respiratory Syncytial virus strain A2 containing the firefly luciferase reporter (RSV-Fluc) in NHBE cells. The data set is described as follows: RSV NHBE FLuc EC50 (Example I). The settings on record: human respiratory syncytial virus, 72 h, read-out: RSV NHBE FLuc EC50 (nM) (per Ex. I). The text has this: Normal human bronchial epithelial (NHBE) cells are purchased from Lonza (Walkersville, MD Cat #CC-2540) and maintained in Bronchial Epithelial Cell Growth Medium (BEGM) (Lonza, Walkersville, MD, Cat #CC-3170) with all provided supplements in the BulletKit. Cells are passaged 2-3 times per week to maintain sub-confluent densities and are used for experiments at passages 2-4.
Recombinant Respiratory Syncytial virus strain A2 containing the firefly luciferase reporter between the P and M genes (RSV-Fluc, 6.3×10^6 TCID50/mL) is purchased from Viratree (Durham, NC, Cat #R^145).
NHBE cells (5×10^3/well) are seeded in 100 μL white wall/clear bottom 96-well plates (Corning) with culture medium and are incubated for 24 hours at 37° C. with 5% CO2. On the following day, three-fold serial dilutions of compounds prepared in DMSO are added to the wells using the HP D300e digital dispenser with normalization to the highest concentration of DMSO in all wells. The cells are then infected with RSV-Fluc diluted with BEGM media at an MOI of 0.1 for a final volume of 200 μL media/well. Uninfected and untreated wells are included as controls to determine compound efficacy against RSV-Fluc. Following incubation with compound and virus for three days at 37° C. with 5% CO2, 100 μL of culture supernatant is removed from each well and replaced with 100 μL of ONE-Glo luciferase reagent (Promega, Madison, WI, Cat #E6110). The plates are gently mixed by rocking for 10 minutes at 21° C. and luminescence signal is measured using an Envision plate reader (PerkinElmer). Values are normalized to the uninfected and infected DMSO controls (0% and 100% infection, respectively). Non-linear regression analysis is applied to determine the compound concentration at which 50% luminescence signal is reduced (EC50) using the XLfit4 add-in for MICROSOFT®EXCEL®. All experiments are performed in duplicate with two technical repeats each.

Data set [3] relates to Respiratory syncytial virus recombinant with luciferase (RSV-Luc5) in NHBE cells. The data set is described as follows: NHBE RSV-Luc5 384-well assay (EC50 RSVFLUC NHBE-384, Example U). The settings on record: human respiratory syncytial virus, 72 h, read-out: RSV FLuc NHBE 384 EC50 (v2) (nM) (per Ex. U). The procedure: Normal Human Bronchial Epithelial (NHBE) cells were purchased from Lonza (Walkersville, MD Cat #CC2540) and maintained in BEGM Bronchial Epithelial Cell (Growth Medium BulletKit (Lonza CC-3170).
Cells were thawed, expanded, and were used for experiments at passage 2. Respiratory syncytial virus recombinant with luciferase (RSV-Luc5) (≥1×10^7 Infectious Units/ml (IU/ml) determined by TCID50) was purchased from Microbiologics (Saint Cloud, MN). Viral replication was determined in NHBE cells in the following manner.
(§1) Compounds are prepared in 100% DMSO in 384-well polypropylene plates (Greiner, Monroe, NC, Cat #784201) with 8 compounds per plate in grouped replicates of 4 at 10 serially diluted concentrations (1:3). The serially diluted compounds were transferred to low dead volume Echo plates (Labcyte, Sunnyvale, CA, Cat #LP-0200).
The test compounds were spotted to 384-well assay plates (Greiner, Monroe, NC, Cat #781091) at 200 nL per well. NHBE cells were harvested and suspended in BEGM Bronchial Epithelial Cell Growth Medium BulletKit and seeded to the pre-spotted assay plates at 5,000 cells per well in 30 μL. RSV-Luc5 virus was diluted in BEGM Bronchial Epithelial Cell Growth Medium BulletKit at 500,000 Infectious Units (IU) per mL and 10 μL per well was added to the assay plates containing cells and compounds, for an MOI of 1. The assay plates were incubated for 3 days at 37° C. and 5% CO2. At the end of incubation, One-Glo reagent (Promega, Madison, WI, Cat #E6120) was prepared. The assay plates and One-Glo reagent were equilibrated to room temperature for at least 15 minutes. 40 μL per well of One-Glo reagent was added and the plates were incubated at room temperature for 15 minutes before reading the luminescence signal on an EnVision multimode plate reader (Perkin Elmer, Waltham, MA). Remdesivir was used as positive control and DMSO was used as negative control. Values were normalized to the positive and negative controls (as 0% and 100% replication, respectively) and data was fitted using non-linear regression analysis by Gilead's dose response tool. The EC50 value for each compound was defined as the concentration reducing the viral replication by 50%.

Data set [4] relates to Human Rhinovirus 14 (HRV14) in H1-HeLa cells. The data set is described as follows: H1-HeLa HRV-CTG EC50, HRV14 (Example Z). The note with it: Rhinovirus B, HRV14, 96 h, MOI 1.0, 4 days, Celltiter-Glo, read-out: HRV14 HELA EC50 (nM) (per Ex. Z). The text has this: (§2) H1-Hela cell line (ATCC, Manassas, VA, Cat #CRL-1958) was maintained in Dulbecco's […] (DMEM) (Corning, New York, NY, Cat #15-018CM) supplemented with 10% fetal bovine serum (FBS) (Hyclone, Logan, UT, Cat #SH30071-03), and 1× Penicillin-Streptomycin-L-Glutamine (Coming, New York, NY, Cat #30-009-C1). Cells were passaged 2 times per week to maintain sub-confluent densities and were used for experiments at passage 5-30. The Human Rhinovirus 1B (HRV1B) (ATCC, Manassas, VA, Cat #VR-1645), Human Rhinovirus 14 (HRV14) (ATCC, Manassas, VA, Cat #VR-284), and Human Rhinovirus 16 (HRV16) (ATCC, Manassas, VA, Cat #BR-283) was obtained through ATCC. Viral infection was monitored by determining viability of H1-HeLa cells as described below.
(§3) Test molecules are prepared in 100% DMSO in 384-well polypropylene plates (Greiner, Monroe, NC, Cat #784201) with 8 compounds per plate in grouped replicates of 4 at 10 serially diluted concentrations (1:3). The serially diluted compounds were transferred to low dead volume Echo plates (Labcyte, Sunnyvale, CA, Cat #LP-0200).
(§4) The test compounds were spotted to 384-well assay plates (Greiner, Monroe, NC, Cat #781091) at 200 nL per well using an Echo acoustic dispenser (Labcyte, Sunnyvale, CA). H1-HeLa cells were harvested and suspended in DMEM (supplemented with 2% FBS and 1× Penicillin-Streptomycin-L-Glutamine) and seeded to the pre-spotted assay plates at 5,000 cells per well in 30 μL. HRV1B, HRV14, and HRV16 was diluted in DMEM (supplemented with 2% FBS and 1× Penicillin-Streptomycin-L-Glutamine) at 97.1 million Infectious Units (IU) per mL, 151 million IU per mL and 221 million IU per mL respectively. 10 μL of virus per well was added to the assay plates containing cells and compounds, for an MOI of 0.5, 1.0, and 0.25 respectively. The assay plates were incubated for 4 days at 37° C. and 5% CO2. At the end of incubation, Celltiter-Glo (Promega, Madison, WI, Cat #G7573) was prepared. The assay plates and Celltiter-Glo reagent were equilibrated to room temperature for at least 15 minutes. 40 μL per well of Celltiter-Glo reagent was added and the plates were incubated at room temperature for 15 minutes before reading the luminescence signal on an EnVision multimode plate reader (Perkin Elmer, Waltham, MA). Rupintrivir was used as positive control and DMSO was used as negative control. Values were normalized to the positive and negative controls (as 0% and 100% replication, respectively) and data was fitted using non-linear regression analysis by Gilead's dose response tool. The EC50 value for each compound was defined as the concentration reducing viral replication by 50%.
Background: ATP-based viability assays read luminescence as a measure of living cells.

In data set [5] the test system is Human Rhinovirus 16 (HRV16) in H1-HeLa cells. Put plainly: H1-HeLa HRV-CTG EC50, HRV16 (Example Z). The settings on record: Rhinovirus A, HRV16, 96 h, MOI 0.25, 4 days, Celltiter-Glo, read-out: HRV 16 HELA EC50 (nM) (per Ex. Z).
From the text: as §2, §3, §4

The subject of data set [6] is Human Rhinovirus 1B (HRV1B) in H1-HeLa cells. Put plainly: H1-HeLa HRV-CTG EC50, HRV1B (Example Z). The settings on record: Rhinovirus A, 96 h, MOI 0.5, 4 days, Celltiter-Glo, read-out: HRV 1B HELA EC50 (nM) (per Ex. Z).
From the text: as §2, §3, §4

For data set [7], the system named is Respiratory syncytial virus recombinant with luciferase (RSV-Luc5) in HEp-2 cells. Put plainly: HEp-2 RSV-Luc5 384-well assay (EC50 RSVFLUC Hep2-384 v2, Example V). The note with it: human respiratory syncytial virus, HEp-2, 72 h, read-out: RSV Hep-2 FLuc EC50 (v2) (nM) (per Ex. V).
From the text: HEp-2 cell line was purchased from ATCC (Manassas, VA Cat #CCL-23) and maintained in Dulbecco's […] (DMEM) (Corning, New York, NY, Cat #15-018CM) supplemented with 10% fetal bovine serum (FBS) (Hyclone, Logan, UT, Cat #SH30071-03) and 1× Penicillin-Streptonycin-L-Glutamine (Corning, New York, NY, Cat #30-009-CI). Cells were passaged 2 times per week to maintain sub-confluent densities and were used for experiments at passage 5-20. Respiratory syncytial virus recombinant with luciferase (RSV-Luc5) (≥1×107 TCID50/ml) was purchased from Microbiologics (Saint Cloud, MN). Viral replication was determined in HEp-2 cells in the following manner.
as §1
The test compounds were spotted to 384-well assay plates (Greiner, Monroe, NC, Cat #781091) at 200 nL per well. HEp-2 cells were harvested and suspended in DMEM (supplemented with 10% FBS and 1× Penicillin-Streptomycin-L-Glutamine) and seeded to the pre-spotted assay plates at 4,000 cells per well in 30 μL. RSV-Luc5 viruses were diluted in DMEM (supplemented with 10% FBS and 1× Penicillin-Streptomycin-L-Glucamine) at 200,000 Infectious Units (IU) per mL and 10 μL per well was added to the assay plates containing cells and compounds, for an MOI=0.5. The assay plates were incubated for 3 days at 37° C. and 5% CO2. At the end of incubation, One-Glo reagent (Promega, Madison, WI, Cat #E6120) was prepared. The assay plates and One-Glo reagent were equilibrated to room temperature for at least 15 minutes. 40 μL per well of One-Glo reagent was added and the plates were incubated at room temp for 15 minutes before reading the luminescence signal on an EnVision multimode plate reader (Perkin Elmer, Waltham, MA). Remdesivir was used as positive control and DMSO was used as negative control. Values were normalized to the positive and negative controls (as 0% and 100% replication, respectively) and data was fitted using non-linear regression analysis by Gilead's dose response tool. The EC50 value for each compound was then determined as the concentration reducing the viral replication by 50%.

Data set [8] is described as follows: RSV HEP2-CC50-384-V2 (per Ex. V). The settings on record: human.

The CC50 is the concentration at which the toxic effect on the cells reaches its halfway point. The term EC50 denotes the concentration needed to bring the measured effect to its halfway point. Consider `CCCCCCCCCCCCCCCCCCC[C@@H](COP(=O)(O)OC[C@@]1(C#N)O[C@@H](c2ccc3c(N)ncnn23)[C@H](O)[C@@H]1O)OCc1cc(F)cc(C#N)c1` [Compound 31, ((2R,3S,4R)-5-(4-aminopyrrolo[2,1-f][1,2,4]triazin-7-yl)-2-cyano-3,4-dihydroxytetrahydrofuran-2-yl)methyl ((S)-2-((3-cyano-5-fluorobenzyl)oxy)henicosyl) hydrogen phosphate], for which half-maximal cytotoxicity in data set [1] (CC50 at 3 days) was put at 1900 nM. Further, the EC50 in data set [2] stood at 229 nM; in data set [3] it was 134 nM.
For the compound `CCCCCCCCCCCCCCCOC[C@H](COP(=O)(O)OC[C@@]1(C#N)O[C@@H](c2ccc3c(N)ncnn23)[C@H](O)[C@@H]1O)OCc1cc(F)cc(C#N)c1` [Compound 99, ((2R,3S,4R,5S)-5-(4-aminopyrrolo[2,1-f][1,2,4]triazin-7-yl)-2-cyano-3,4-dihydroxytetrahydrofuran-2-yl)methyl ((R)-2-((3-cyano-5-fluorobenzyl)oxy)-3-(pentadecyloxy)propyl) hydrogen phosphate], the CC50 at 3 days came out at 1140 nM in data set [1] and 42300 nM in data set [8]. Besides, the EC50 is 37 nM in data set [4]; 33 nM in data set [5]; 47 nM in data set [3]; 19 nM in data set [6]; 166 nM in data set [7].
